ChEMBL document CHEMBL1201862, “PubChem BioAssay data set” (2004)
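Exposure lasted 48 hours, with cells grown in 96-well plates and compounds tested at five concentrations. GI50 = concentration required for 50% inhibition of growth.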 Active and inactive are the calls of the source. Cut-off read from the data, not from the text of the source: active = GI50 up to about 1.1 µM and inactive = higher.

Assays:
Assay in all cases: growth of human tumour cells (NCI), 48 h
786-0 = test system: 786-0
A498 = test system: A498
A549 = test system: A549
BT-549 = test system: BT-549
CAKI-1 = test system: CAKI-1
COLO 205 = test system: COLO 205
DU-145 = test system: DU-145
HCC 2998 = test system: HCC 2998
HCT-15 = test system: HCT-15
IGROV-1 = test system: IGROV-1
LOX IMVI = test system: LOX IMVI
MDA-MB-231 = test system: MDA-MB-231
MDA-MB-435 = test system: MDA-MB-435
NCI/ADR-RES = test system: NCI/ADR-RES
SK-MEL-5 = test system: SK-MEL-5
SN12C = test system: SN12C
T47D = test system: T47D
SF-295 = test system: SF-295
SR = test system: SR

SMILES	GI50 (786-0)	GI50 (A498)	GI50 (A549)	GI50 (BT-549)	GI50 (CAKI-1)	GI50 (COLO 205)	GI50 (DU-145)	GI50 (HCC 2998)	GI50 (HCT-15) [µM]	GI50 (IGROV-1)	GI50 (LOX IMVI)	GI50 (MDA-MB-231)	GI50 (MDA-MB-435)	GI50 (NCI/ADR-RES)	GI50 (SK-MEL-5)	GI50 (SN12C)	GI50 (T47D)	GI50 (SF-295)	GI50 (SR)
COc1ccc(/C=N\NC(=O)Nc2cccc3ccccc23)cc1	11.4 µM (inactive)	18.2 µM (inactive)	45.4 µM (inactive)	29.9 µM (inactive)	13.7 µM (inactive)	> 100 µM (inactive)	38.5 µM (inactive)	47.5 µM (inactive)	6.79	17.3 µM (inactive)	13.1 µM (inactive)	20.5 µM (inactive)	4.06 µM (inactive)	22 µM (inactive)	28.2 µM (inactive)	49.3 µM (inactive)	14.1 µM (inactive)		
CC(=O)Nc1[nH]c(C#N)nc1C#N	> 100 µM (inactive)	> 100 µM (inactive)	> 100 µM (inactive)	> 100 µM (inactive)	> 100 µM (inactive)	> 100 µM (inactive)	> 100 µM (inactive)	> 100 µM (inactive)	> 100	> 100 µM (inactive)	> 100 µM (inactive)	> 100 µM (inactive)	> 100 µM (inactive)	> 100 µM (inactive)	> 100 µM (inactive)	> 100 µM (inactive)	> 100 µM (inactive)	> 100 µM (inactive)	
CCOP(=O)(OCC)C(C)(CC)NC (stereo not given)	> 100 µM (inactive)	> 100 µM (inactive)	> 100 µM (inactive)	> 100 µM (inactive)	> 100 µM (inactive)	> 100 µM (inactive)	> 100 µM (inactive)	> 100 µM (inactive)	> 100	> 100 µM (inactive)	> 100 µM (inactive)	> 100 µM (inactive)	> 100 µM (inactive)	> 100 µM (inactive)	> 100 µM (inactive)	> 100 µM (inactive)	> 100 µM (inactive)	> 100 µM (inactive)	
CC(=O)N[C@H]1CCCC[C@@H]1OC(C)=O	> 100 µM (inactive)	> 100 µM (inactive)		> 100 µM (inactive)	> 100 µM (inactive)	> 100 µM (inactive)	> 100 µM (inactive)	> 100 µM (inactive)	> 100	> 100 µM (inactive)	> 100 µM (inactive)	> 100 µM (inactive)	> 100 µM (inactive)	> 100 µM (inactive)	> 100 µM (inactive)	> 100 µM (inactive)	> 100 µM (inactive)	> 100 µM (inactive)	
CC1(C)CC(=O)C(CC2C(=O)c3ccccc3C2=O)C(=O)C1C(=O)C(=O)Nc1cccc2ccc(O)cc12 (stereo not given)	> 100 µM (inactive)	20.8 µM (inactive)	> 100 µM (inactive)	15 µM (inactive)	34.4 µM (inactive)	> 100 µM (inactive)	> 100 µM (inactive)	> 100 µM (inactive)	59.3	48.9 µM (inactive)	94.4 µM (inactive)	34 µM (inactive)	> 100 µM (inactive)	54.1 µM (inactive)	> 100 µM (inactive)	> 100 µM (inactive)	27.4 µM (inactive)	92.3 µM (inactive)	
COc1ccc(N2C(=O)C3c4[nH]c5ccc(C)cc5c4C4CCC(C(C)(C)C)CC4C3C2=O)cc1 (stereo not given)	20.4 µM (inactive)		6.9 µM (inactive)	20.7 µM (inactive)	10.3 µM (inactive)	18.4 µM (inactive)	> 100 µM (inactive)	41 µM (inactive)	27.5	38.9 µM (inactive)		35.9 µM (inactive)	24.9 µM (inactive)	13.3 µM (inactive)	20.7 µM (inactive)	48.4 µM (inactive)	35.2 µM (inactive)	5.48 µM (inactive)	11.6 µM (inactive)
